From patent publication US5498780A, “Platinum complex and malignant tumor treating drug containing the same” (SS Pharmaceutical Co., Ltd., priority 1994, dated 1996)

Legend:
[1] = system: murine P388 leukemia cell; experiment: Antitumor effect on murine P388 leukemia cell; type: in vivo, murine; male CDF1 mice; conditions: for ILSmax (maximum percent increase in life-span) / ILS50 (dose which shows 50% of the ILS value by 5 administrations) / dose corresponding to ILSmax: P388, i.p. once a day for 5 days; for ILSmax (maximum percent increase in life-span): 30 days observation; for ILS50 (dose which shows 50% of the ILS value by 5 administrations): linear regression; for TI (therapeutic index, LD50 value/ILS50 value): P388
Protocol: (§1) Murine L1210 leukemia cells (1×10^5 cells) were inoculated peritoneally into six-week-old male CDF1 mice on day 0. From the next day after the inoculation, a drug (the compound of the invention or a compound for comparison) was administered peritoneally once a day for 5 days. After 30 days of observation, the percent increase in life-span (ILS) was calculated as follows: […]
(§2) T: mean survival days of the drug-treated group
(§3) C: mean survival days of control group
(§4) In these tables, ILSmax means maximum ILS value (%), and corresponding dose (mg/kg) is Shown in parenthesis.
Antitumor effect on murine P388 leukemia cell:
The test of Test Example 1 was repeated except that 1×10^6 of murine P388 leukemia cells were used instead of 1×10^5 of murine L1210 leukemia cells.

[2] = system: murine L1210 leukemia cell; experiment: Antitumor effect on murine L1210 leukemia cell (increase in life-span of inoculated mice); type: in vivo, murine; male CDF1 mice; conditions: for ILSmax (maximum percent increase in life-span) / ILS50 (dose which shows 50% of the ILS value by 5 administrations) / dose corresponding to ILSmax: L1210, i.p. once a day for 5 days; for ILSmax (maximum percent increase in life-span): 30 days observation; for ILS50 (dose which shows 50% of the ILS value by 5 administrations): linear regression; for TI (therapeutic index, LD50 value/ILS50 value): L1210
Protocol: as §1, §2, §3, §4

[3] = 50% lethal dose by single peritoneal administration, obtained at the time of the dose setting; type: in vivo, CDF1 mice
Source text: as §4

[4] = system: cisplatin-resistant murine L1210 leukemia cell (L1210/DDP); experiment: Antitumor effect on cisplatin-resistant murine L1210 leukemia cell (L1210/DDP); type: in vivo, murine; male CDF1 mice; conditions: for ILSmax (maximum percent increase in life-span) / dose corresponding to ILSmax / ILS50 (dose which shows 50% of the ILS value by 5 administrations): i.p. once a day for 5 days; for ILSmax (maximum percent increase in life-span): 30 days observation; for ILS50 (dose which shows 50% of the ILS value by 5 administrations): linear regression
Protocol: as §1, §2, §3
In these tables, ILSmax means maximum ILS value (%), and corresponding dose (mg/kg) is Shown in parenthesis. In this test, cisplatin and carboplatin were respectively tested in each test lot for accurate comparison.
Antitumor effect on cisplatin-resistant murine L1210 leukemia cell (L1210/DDP):
The test of Test Example 1 was repeated except that cisplatin-resistant murine L1210 leukemia cell (L1210/DDP) was used instead of murine L1210 leukemia cell.

SMILES	ILSmax (maximum percent increase in life-span) ([1]; Table 8 test lot)	ILSmax (maximum percent increase in life-span) ([1]; Table 10 test lot)	ILS50 (dose which shows 50% of the ILS value by 5 administrations) ([1]; Table 8 test lot)	ILS50 (dose which shows 50% of the ILS value by 5 administrations) ([1]; Table 10 test lot)	dose corresponding to ILSmax ([1]; Table 8 test lot)	dose corresponding to ILSmax ([1]; Table 10 test lot)	TI (therapeutic index, LD50 value/ILS50 value) ([1]; Table 8 test lot)	TI (therapeutic index, LD50 value/ILS50 value) ([1]; Table 10 test lot)	ILSmax (maximum percent increase in life-span) ([2]; Table 4 test lot)	ILS50 (dose which shows 50% of the ILS value by 5 administrations) ([2]; Table 4 test lot)	dose corresponding to ILSmax ([2]; Table 4 test lot)	TI (therapeutic index, LD50 value/ILS50 value) ([2]; Table 4 test lot)	LD50 (50% lethal dose) [3]	ILSmax (maximum percent increase in life-span) ([4]; Table 6 test lot)	dose corresponding to ILSmax ([4]; Table 6 test lot)	further results
N.N.O=C([O-])C1(C(=O)[O-])CCC1.[Pt+2] [Carboplatin, carboplatin, reference compound]	73.1%	57.3%	10.5 mg/kg	13.8 mg/kg	16.0 mg/kg	32.0 mg/kg	23.3	17.8	50.6%	41.0 mg/kg	64.0 mg/kg	6.0	245.0 mg/kg	8.5%	16.0 mg/kg	ILSmax (maximum percent increase in life-span) ([1]; Table 9 test lot): 79.8%; ILS50 (dose which shows 50% of the ILS value by 5 administrations) ([1]; Table 9 test lot): 12.1 mg/kg; dose corresponding to ILSmax ([1]; Table 9 test lot): 32.0 mg/kg; TI (therapeutic index, LD50 value/ILS50 value) ([1]; Table 9 test lot): 20.2; ILSmax (maximum percent increase in life-span) ([2]; Table 5 test lot): 72.5%; ILS50 (dose which shows 50% of the ILS value by 5 administrations) ([2]; Table 5 test lot): 33.9 mg/kg; dose corresponding to ILSmax ([2]; Table 5 test lot): 64.0 mg/kg; TI (therapeutic index, LD50 value/ILS50 value) ([2]; Table 5 test lot): 7.2; ILSmax (maximum percent increase in life-span) ([4]; Table 7 test lot): 14.3%; dose corresponding to ILSmax ([4]; Table 7 test lot): 64.0 mg/kg
N.N.[Cl][Pt][Cl] [Cisplatin, cisplatin, reference compound]	> 120.4%	> 120.9%	< 0.5 mg/kg	< 0.5 mg/kg	4.0 mg/kg	4.0 mg/kg	–	–	88.2%	1.3 mg/kg	4.0 mg/kg	–	–	0.9%	4.0 mg/kg	ILSmax (maximum percent increase in life-span) ([1]; Table 9 test lot): > 156.7%; ILS50 (dose which shows 50% of the ILS value by 5 administrations) ([1]; Table 9 test lot): < 0.5 mg/kg; dose corresponding to ILSmax ([1]; Table 9 test lot): 4.0 mg/kg; ILSmax (maximum percent increase in life-span) ([2]; Table 5 test lot): 90.0%; ILS50 (dose which shows 50% of the ILS value by 5 administrations) ([2]; Table 5 test lot): 1.1 mg/kg; dose corresponding to ILSmax ([2]; Table 5 test lot): 4.0 mg/kg; ILSmax (maximum percent increase in life-span) ([4]; Table 7 test lot): 5.1%; dose corresponding to ILSmax ([4]; Table 7 test lot): 4.0 mg/kg
N.NC1CCCCC1.[Cl][Pt][Cl] [Comparative drug A, cis-dichloroammine cyclohexylamineplatinum(II), reference compound]	101.9%	–	< 1.0 mg/kg	–	4.0 mg/kg	–	> 31.3	–	97.6%	< 1.0 mg/kg	8.0 mg/kg	> 31.3	31.3 mg/kg	> 157.5%	1.0 mg/kg	TI (therapeutic index, LD50 value/ILS50 value) ([4]; Table 6 test lot): > 31.3; ILS50 (dose which shows 50% of the ILS value by 5 administrations) ([4]; Table 6 test lot): < 1.0 mg/kg
CNO.N.[Cl][Pt][Cl] [Compound No. 1, cis-dichloroammine (N-methylhydroxylamine)platinum(II)]	> 136.1%	–	< 0.5 mg/kg	–	4.0 mg/kg	–	> 31.2	–	–	–	–	–	15.6 mg/kg	–	–	–
CON.N.[Cl][Pt][Cl] [Compound No. 2, cis-dichloroammine (O-methylhydroxylamine)platinum(II)]	126.9%	–	< 0.5 mg/kg	–	4.0 mg/kg	–	> 44.2	–	–	–	–	–	22.1 mg/kg	–	–	–
N.ONC1CCCCC1.[Cl][Pt][Cl] [Compound No. 4, cis-dichloroammine (N-cyclohexylhydroxylamine)platinum(II)]	108.3%	–	1.1 mg/kg	–	16.0 mg/kg	–	80.2	–	> 120.0%	2.1 mg/kg	8.0 mg/kg	42.0	88.2 mg/kg	> 183.0%	2.0 mg/kg	TI (therapeutic index, LD50 value/ILS50 value) ([4]; Table 6 test lot): > 88.2; ILS50 (dose which shows 50% of the ILS value by 5 administrations) ([4]; Table 6 test lot): < 1.0 mg/kg
CCON.N.[Cl][Pt][Cl] [Compound No. 5, cis-dichloroammine (O-ethylhydroxylamine)platinum(II)]	> 129.6%	–	0.6 mg/kg	–	4.0 mg/kg	–	36.8	–	> 109.4%	0.9 mg/kg	4.0 mg/kg	24.6	22.1 mg/kg	> 152.8%	2.0 mg/kg	TI (therapeutic index, LD50 value/ILS50 value) ([4]; Table 6 test lot): 27.6; ILS50 (dose which shows 50% of the ILS value by 5 administrations) ([4]; Table 6 test lot): 0.8 mg/kg
CCO[NH][Pt]([Cl])([Cl])[NH]C(C)C [Compound No. 12, cis-dichloro(isopropylamine) (O-ethylhydroxylamine)platinum(II)]	–	–	–	–	–	–	–	–	–	–	–	–	22.1 mg/kg	–	–	ILSmax (maximum percent increase in life-span) ([2]; Table 5 test lot): 102.5%; ILS50 (dose which shows 50% of the ILS value by 5 administrations) ([2]; Table 5 test lot): 1.5 mg/kg; dose corresponding to ILSmax ([2]; Table 5 test lot): 8.0 mg/kg; TI (therapeutic index, LD50 value/ILS50 value) ([2]; Table 5 test lot): 14.7; TI (therapeutic index, LD50 value/ILS50 value) ([4]; Table 7 test lot): > 22.1; ILSmax (maximum percent increase in life-span) ([4]; Table 7 test lot): > 206.1%; dose corresponding to ILSmax ([4]; Table 7 test lot): 2.0 mg/kg; ILS50 (dose which shows 50% of the ILS value by 5 administrations) ([4]; Table 7 test lot): < 1.0 mg/kg
CCON.N.O=C1[O][Pt][O]C(=O)C12CCC2 [Compound No. 15, (1,1-cyclobutane dicarboxylate)ammine (O-ethylhydroxylamine)platinum(II)]	–	93.6%	–	8.2 mg/kg	–	32.0 mg/kg	–	21.6	–	–	–	–	176.8 mg/kg	–	–	–
CCCO[NH][Pt]1([NH2])[O]C(=O)C2(CCC2)C(=O)[O]1 [Compound No. 16, (1,1-cyclobutane dicarboxylate)ammine (O-propylhydroxylamine)platinum(II)]	–	72.7%	–	8.2 mg/kg	–	8.0 mg/kg	–	21.6	–	–	–	–	176.8 mg/kg	–	–	–
CC(C)(C)O[NH][Pt]1([NH2])[O]C(=O)C2(CCC2)C(=O)[O]1 [Compound No. 17, (1,1-cyclobutane dicarboxylate)ammine (O-tert-butylhydroxylamine)platinum(II)]	–	72.7%	–	12.4 mg/kg	–	32.0 mg/kg	–	20.2	–	–	–	–	250.0 mg/kg	–	–	–
